Consider five molecules from patent US6541425B1, “Retarding formulations of active substances used for plant protection” (priority 1998, dated 2003).

≈ marks a conversion by molar mass, not a printed value.

Series [1] in a line: Solubility in water of the active ingredients. The class given is physicochemical. The settings on record: for solubility: water.

For “N-methylphenyl-2-((3-[E]-methoxyimino, 5-methyl, 2-[E]-oximino-hex-4-en-yl)methyl)-alpha-[E]-methoximinoacetamide [Compound 5]”, the Solubility in water in series [1] came to 58 µg/mL.
In the case of `CNC(=O)/C(=N/OC)c1ccccc1CO/N=C(C)/C(=N/OC)OC(C)C` [Compound 1, N-methyl-2-[2-(2-isopropoxy-2-(Z)-methoxyimino-1-methyl-(E)-ethylideneaminooxymethyl)phenyl]-2-(E)-methoxyiminoacetamide], the melting point stood at 57 °C. For the same molecule, in series [1], the concentration in solution (solubility) was 1340 µg/mL (≈ 3.54 mM).
Molecule `CNC(=O)/C(=N/OC)c1ccccc1CO/N=C(C)/C(=N/OC)OCC(C)C` [Compound 3, N-methyl-2-[2-(2-isobutoxy-2-(Z)-methoxyimino-1-methyl-(E)-ethylideneaminooxymethyl)phenyl]-2-(E)-methoxyiminoacetamide] registered a melting point of 68 °C. The amount in solution in series [1] (solubility) came to 500 µg/mL (≈ 1.27 mM).
As for `CNC(=O)/C(=N/OC)c1ccccc1CO/N=C(C)/C(=N/OC)C(/C)=N/OC` [Compound 4, N-methylphenyl-2-((3,4-[E]-bis(methoximino), 2-[E]-oximinopentyl)methyl)-alpha-[E]-methoximinoacetamide], the Solubility in water in series [1] amounted to 450 µg/mL (≈ 1.15 mM).
Molecule `CCC(C)OC(=N\OC)/C(C)=N/OCc1ccccc1/C(=N\OC)C(=O)NC` (centres unmarked) [Compound 2, N-methyl-2-[2-(2-sec-butoxy-2-(Z)-methoxyimino-1-methyl-(E)-ethylideneaminooxymethyl)phenyl]-2-(E)-methoxyiminoacetamide] gave a melting point of 48 to 50 °C. The same molecule had a solubility in series [1] of 1190 µg/mL (≈ 3.03 mM).

Broadly, the melting point is the temperature of the solid-liquid transition. One may read the solubility as the concentration that dissolves in the medium under given conditions. Lower therefore signals little dissolved substance.
